In brackets after ≈: the same amount, converted by molar mass. Like-named read-outs stand apart in the source and are kept apart here.
How the values were obtained:
C. neoformans = assay: MIC assay (Example 4); format: cell-based, Cryptococcus neoformans; details: 37° C.; for MIC: Cryptococcus neoformans, read-out: C. neoformans MIC
Procedure: Both JH-FK-10 and JH-FK-11 maintained in vitro antifungal activity against C. neoformans with MICs of 0.8 and 1.6 μg/mL, respectively (Table 11).
In vitro antifungal activity of FK506, FK520, and analogs was assessed in RPMI 1640 (Sigma-Aldrich) for all strains tested. Minimum inhibitory concentrations (MIC) for each drug were measured using modified Clinical and Laboratory Standards Institute (CLSI) M38-A2 and M27-A3 standard in vitro antifungal susceptibility protocols. Broth microdilution assays for MIC assessment were performed as previously described. All antifungal assays with C. neoformans were performed at 37° C.

Aspergillus fumigatus = assay: Broth microdilution MIC/MEC (Example 1); format: cell-based; details: for minimal effective concentration: Aspergillus fumigatus, strain Af293, read-out: MEC against Aspergillus fumigatus (Af293)
Procedure: MICs/minimum effective concentrations (MECs) were determined for each of the novel analogs against the three major human fungal pathogens, A. fumigatus, C. neoformans, and C. albicans. […] Thus, analogs of FK506 and FK520 can tolerate up to 100-fold reduction in antifungal activity and still be considered for in vivo testing. For C. neoformans, MICs were the most uniform and ranged from 0.2 to 2 μg/mL, which is between 4- and 40-fold reduced for antifungal activity.
To assess the antifungal activity against other human fungal pathogens, JH-FK-05 was selected to test against a panel of pathogenic molds and drug-resistant A. fumigatus strains (Table 4). JH-FK-05 registered MECs as low as 1 μg/mL for some of these highly recalcitrant species, such as Mucor circinelloides, Rhizopus oryzae, and pan azole-resistant A. fumigatus (strain F14946).
In vitro antifungal activities of FK506, FK520, and analogs were assessed in RPMI 1640 (Sigma-Aldrich) for all strains tested. MICs/minimum effective concentrations (MECs) for each drug were measured using modified Clinical and Laboratory Standards Institute (CLSI) M38-A2 and M27-A3 standard in vitro antifungal susceptibility protocols. Broth microdilution assays for MIC/MEC assessment were performed as described previously (see, Juvvadi P R, et al., 2019, Nat Commun 10:4275). All antifungal assays with C. neoformans were performed at 37° C. Antifungal susceptibility testing for C. albicans was performed in the presence of a uniform 1 μg/mL concentration of fluconazole to sensitize the organism to calcineurin inhibition.

[1] = system: IL-2 expression in primary murine CD4+ T cells; assay: In vitro immunosuppressive activity, IL-2 expression (Example 4); format: cell-based, mouse; details: Mus musculus, CD4+ T
Procedure: Spleen and lymph nodes were collected from C57BL/6 mice and homogenized through a 40 μm filter. Pan-CD4^+ T cells were enriched using MagniSort Mouse CD4 T cell Kit (eBioscience) according to the manufacturer's protocol. Thereafter, CD4+CD25−CD44lo CD62Lhi naïve T cells were FACS-sorted. The naïve CD4+ T cells were grown in Iscove's Modified Dulbecco's Medium (IMDM) supplemented with glutamine, penicillin, streptomycin, gentamicin, 2-mercaptoethanol, and 10% FBS. Cells were then cultured on anti-hamster IgG coated plates in the presence of hamster anti-CD3 epsilon and anti-CD28 antibodies (BD Biosciences), neutralizing anti-IL-4 antibody (eBioscience), recombinant IL-12 (10 ng/mL), and recombinant IL-2 (50 U/mL) for 72 h. During this period, cells were grown in the presence of 2× serially diluted FK506, FK520, or analog suspended in DMSO for 72 h. During the last 4 h of culture, phorbol 12-myristate 13-acetate (PMA; Sigma), ionomycin (Sigma), and GolgiStop (BD Biosciences) were added to the culture to facilitate detection of intracellular cytokines via flow cytometry.
Live cells were stained with FITC-conjugated anti-CD4 antibody (eBioscience) and Fixable Viability Dye eFluor 506 (eBioscience) on ice, followed by fixation and permeabilization using the Foxp3 Transcription Factor Staining Kit (eBioscience). Intracellular staining was performed at room temperature using PE-conjugated anti-IL-2 antibody (eBioscience), followed by analysis with a BD LSRFortessa X-20 flow cytometer.

[2] = system: IL-2 expression in primary mouse CD4+ T cells (mammalian calcineurin); assay: In vitro immunosuppressive activity, IL-2 expression (Example 3); format: cell-based; details: 72 h
Procedure: Modifications at the C-22 position reduce inhibition of mammalian calcineurin signaling Mammalian calcineurin inhibition was then assessed and found to be reduced for these FK520 analogs. The inhibition of mammalian calcineurin was assessed by measuring the reduction of IL-2 expression from primary mouse CD4^+ T cells cultured in the presence of FK506, FK520, or an analog. Calcineurin activity is required for T cell activation and cytokine production, and IL-2 production serves as an effective measure of mammalian calcineurin activity. After culturing mouse CD4′ T cells for 72 h, IL-2 expression was analyzed by flow cytometry to evaluate the immunosuppressive activity of the analogs. […] However, compound concentrations that permit high IL-2 expression are less likely to result in cell death.
Spleen and lymph nodes from C57BL/6 mice were collected and homogenized through a 40-μm filter. Pan-CD4^+ T cells were enriched using the MagniSort Mouse CD4 T Cell Enrichment Kit (Invitrogen). Thereafter, CD4^+CD25^−CD62L^hiCD44^lo naïve CD4^+ T cells were FACS-sorted using a MoFlo Astrios cell sorter (Beckman Coulter). Naïve CD4^+ T cells were cultured in Iscove's Modified Dulbecco's Medium supplemented with 10% fetal bovine serum (FBS), penicillin (10 U/mL), streptomycin (10 μg/mL), glutamine (2 mM), gentamicin (50 μg/mL), and β-mercaptoethanol (55 μM). Cells were cultured for 72 h on anti-hamster IgG-coated plates with hamster anti-CD3s antibodies, hamster anti-CD28 antibodies, neutralizing anti-IL-4 antibodies, recombinant IL-12 (10 ng/mL), and recombinant IL-2 (50 U/mL). During this culture, cells were incubated with serially diluted drugs suspended in DMSO.

Row | Compound | MIC (C. neoformans; Table 13) | minimal effective concentration (Aspergillus fumigatus) | IC50 [2] | IC50 ([1]; Table 12) | also measured
1 | CC[C@@H]1/C=C(\C)C[C@H](C)C[C@H](OC)[C@H]2O[C@@](O)(C(=O)C(=O)N3CCCC[C@H]3C(=O)O[C@H](/C(C)=C/[C@@H]3CC[C@@H](O)[C@H](OC)C3)[C@H](C)[C@@H](O)C/C1=N/NC(C)=O)[C@H](C)C[C@@H]2OC [JH-FK-05] | 1 µg/mL (≈ 1.18 µM) | 2 µg/mL | – | – | MIC/MEC (Aspergillus fumigatus; echinocandin-resistant strain EMFR-S678P): 2 µg/mL (≈ 2.36 µM); IC50 ([1]; Table 13): 20000 pM
2 | CC[C@@H]1/C=C(\C)C[C@H](C)C[C@H](OC)[C@H]2O[C@@](O)(C(=O)C(=O)N3CCCC[C@H]3C(=O)O[C@H](/C(C)=C/C3CC[C@@H](O)[C@H](OC)C3)[C@H](C)[C@@H](O)C/C1=N/NC(=O)OC)[C@H](C)C[C@@H]2OC (some centres unmarked) [JH-FK-08] | – | – | 42600 pM | – | –
3 | C=CC[C@@H]1/C=C(\C)C[C@H](C)C[C@H](OC)[C@H]2O[C@@](O)(C(=O)C(=O)N3CCCC[C@H]3C(=O)O[C@H](/C(C)=C/[C@@H]3CC[C@@H](O)[C@H](OC)C3)[C@H](C)[C@@H](O)C/C1=N/NC(=O)CC)[C@H](C)C[C@@H]2OC [JH-FK-02] | – | 2 µg/mL | – | – | –
4 | CC[C@@H]1/C=C(\C)C[C@H](C)C[C@H](OC)[C@H]2O[C@@](O)(C(=O)C(=O)N3CCCC[C@H]3C(=O)O[C@H](/C(C)=C/[C@@H]3CC[C@@H](O)[C@H](OC)C3)[C@H](C)[C@@H](O)CC1=O)[C@H](C)C[C@@H]2OC [FK520, reference compound] | – | – | 300 pM | 480 pM | C. neoformans MIC (C. neoformans; Table 11): 0.05 µg/mL; C. neoformans MIC (C. neoformans; Table 12): 0.05 µg/mL; C. neoformans MIC (C. neoformans; Table 13): 0.05 µg/mL
5 | C=CCC1C=C(C)CC(C)CC(OC)C2OC(O)(C(=O)C(=O)N3CCCCC3C(=O)OC(C(C)=CC3CCC(O)C(OC)C3)C(C)C(O)CC1=O)C(C)CC2OC (centres unmarked) [FK506, reference compound] | 0.05 µg/mL (≈ 0.0622 µM) | 0.016 µg/mL | 90 pM | 110 pM | MIC (C. neoformans; Table 11): 0.05 µg/mL (≈ 0.0622 µM); MIC (C. neoformans; Table 12): 0.05 µg/mL (≈ 0.0622 µM)

— US20260315446A1, “ANTIFUNGAL COMPOUNDS AND USES THEREOF” (priority 2023, published 2026)
